Here are results for three compounds from ChEMBL document CHEMBL5576072, “Discovery of a potent and selective JAK1-targeting PROTAC degrader with anti-tumor activities” (Bioorg Med Chem Lett, 2024).

Assay [1] has as its system HEL. The assay is described as follows: Antiproliferative activity against HEL cells. The note with it: Homo sapiens.
The test system of assay [2] is K562. Put plainly: Antiproliferative activity against human K562 cells.
Assay [3] relates to THP-1. The assay is described as follows: Antiproliferative activity against human THP-1 cells.
The target in assay [4] is Signal transducer and activator of transcription 3 (Homo sapiens) (UniProt P40763). Put plainly: Inhibition of STAT3 phosphorylation in HEL cells at 1 uM incubated for 24 hrs by Western blotting analysis. In kind it is cell-based.
Signal transducer and activator of transcription 3 (Homo sapiens), sequence (P40763 whole entry): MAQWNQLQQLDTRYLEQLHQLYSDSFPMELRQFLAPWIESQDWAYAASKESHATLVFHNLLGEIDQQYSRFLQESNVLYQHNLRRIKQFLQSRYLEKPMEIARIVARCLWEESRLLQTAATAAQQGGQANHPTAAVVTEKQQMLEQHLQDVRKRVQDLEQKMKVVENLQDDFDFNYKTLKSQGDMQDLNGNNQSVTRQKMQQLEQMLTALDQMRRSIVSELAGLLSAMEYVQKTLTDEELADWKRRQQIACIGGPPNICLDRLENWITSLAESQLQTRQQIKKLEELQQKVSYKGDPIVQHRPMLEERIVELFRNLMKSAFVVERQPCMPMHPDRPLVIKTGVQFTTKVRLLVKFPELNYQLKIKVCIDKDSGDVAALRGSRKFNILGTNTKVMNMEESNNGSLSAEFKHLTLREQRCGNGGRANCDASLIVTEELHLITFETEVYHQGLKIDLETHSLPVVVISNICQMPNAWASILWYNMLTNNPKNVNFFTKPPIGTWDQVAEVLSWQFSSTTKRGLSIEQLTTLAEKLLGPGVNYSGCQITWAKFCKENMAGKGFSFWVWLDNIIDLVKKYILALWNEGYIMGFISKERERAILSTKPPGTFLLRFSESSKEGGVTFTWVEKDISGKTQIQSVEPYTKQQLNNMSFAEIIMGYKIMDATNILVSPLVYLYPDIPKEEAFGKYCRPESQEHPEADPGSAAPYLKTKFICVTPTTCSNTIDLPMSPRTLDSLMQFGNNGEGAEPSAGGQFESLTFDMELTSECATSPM
The target is the same in assay [5]. The assay is described as follows: Inhibition of STAT3 phosphorylation in HEL cells at 1 uM pretreated with momelotinib followed by compound addition and measured after 24 hrs by Western blotting analysis. In kind it is cell-based.
For assay [6], the target named is T1, Signal transducer and activator of transcription 1-alpha/beta (Homo sapiens) (UniProt P42224).
T1 sequence (whole entry): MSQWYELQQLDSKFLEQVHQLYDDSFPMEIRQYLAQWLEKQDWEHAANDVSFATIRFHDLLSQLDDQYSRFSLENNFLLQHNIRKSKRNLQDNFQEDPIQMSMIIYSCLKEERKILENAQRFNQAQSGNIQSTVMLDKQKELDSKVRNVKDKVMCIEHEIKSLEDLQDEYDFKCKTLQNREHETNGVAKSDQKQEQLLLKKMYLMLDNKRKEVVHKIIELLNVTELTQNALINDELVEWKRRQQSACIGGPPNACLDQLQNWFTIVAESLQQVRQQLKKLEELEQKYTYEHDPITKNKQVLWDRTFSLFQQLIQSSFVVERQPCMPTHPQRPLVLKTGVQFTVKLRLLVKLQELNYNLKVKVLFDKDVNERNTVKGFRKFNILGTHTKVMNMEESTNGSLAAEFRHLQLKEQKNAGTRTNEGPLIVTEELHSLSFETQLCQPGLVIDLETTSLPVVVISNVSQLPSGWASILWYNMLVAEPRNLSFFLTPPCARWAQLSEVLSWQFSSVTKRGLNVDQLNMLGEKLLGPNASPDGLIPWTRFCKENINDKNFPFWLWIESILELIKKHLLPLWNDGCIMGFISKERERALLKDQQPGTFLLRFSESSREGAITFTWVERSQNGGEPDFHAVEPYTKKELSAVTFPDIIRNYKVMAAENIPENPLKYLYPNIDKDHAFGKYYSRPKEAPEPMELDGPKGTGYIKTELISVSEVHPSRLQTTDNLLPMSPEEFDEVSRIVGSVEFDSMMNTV
Put plainly: Inhibition of STAT1 phosphorylation in HEL cells at 1 uM incubated for 24 hrs by Western blotting analysis. In kind it is cell-based. (In general: In western blotting, separated proteins are transferred to a membrane and probed.)

Assay [7] addresses Signal transducer and activator of transcription 3 (Homo sapiens) (UniProt P40763). Put plainly: Inhibition of STAT3 phosphorylation in HEL cells at 1 uM pretreated with MG132 followed by compound addition and measured after 24 hrs by Western blotting analysis. In kind it is cell-based.
The target of assay [8] is T1, Signal transducer and activator of transcription 1-alpha/beta (Homo sapiens). Put plainly: Inhibition of STAT1 phosphorylation in HEL cells at 1 uM pretreated with momelotinib followed by compound addition and measured after 24 hrs by Western blotting analysis. In kind it is cell-based.
Assay [9] shares this target. Put plainly: Inhibition of STAT1 phosphorylation in HEL cells at 1 uM pretreated with MG132 followed by compound addition and measured after 24 hrs by Western blotting analysis. In kind it is cell-based.

Broadly, the IC50 is the midpoint of a concentration-inhibition curve. A high value points to weaker potency in that assay.

Activity calls are given as the source filed them. The calls are words filed in the database; no cut-off is given here.

On to `N#CCNC(=O)c1ccc(-c2ccnc(Nc3ccc(N4CCC(C(=O)NCCCC#Cc5cccc6c5C(=O)N(C5CCC(=O)NC5=O)C6=O)CC4)cc3)n2)cc1` (stereo not given), for which the IC50 in [1] is 37.1 µM; in assay [2], 45.1 µM; in [3], more than 50 µM.

`N#CCNC(=O)c1ccc(-c2ccnc(Nc3ccc(N4CCC(C(=O)NCCCCC#Cc5cccc6c5C(=O)N(C5CCC(=O)NC5=O)C6=O)CC4)cc3)n2)cc1` (stereo not given): the inhibition entry in [4] and in assay [6] was “Active” throughout. In addition, the inhibition entry in assay [5], in assay [7], in assay [8] and in [9] was “inactive” each time. Further, the IC50 came out at 1.3 µM in assay [1], 6.1 µM in [2] and 10.5 µM in [3].

For the compound `N#CCNC(=O)c1ccc(-c2ccnc(Nc3ccc(N4CCC(C(=O)NCCCCCC#Cc5cccc6c5C(=O)N(C5CCC(=O)NC5=O)C6=O)CC4)cc3)n2)cc1` (stereo not given), the IC50 in assay [1], in assay [2] and in assay [3] was more than 50 µM in each case.
